Results on 18 compounds are retold here after US20260200939A1, “MOLECULAR GLUE DEGRADER COMPOUNDS AND USES THEREOF” (Novartis AG, priority 2022, published 2026).

One test has as its target T1, BRD4 long (Homo sapiens, UniProt O60885).
T1 construct: endogenous in cells; host or cells: HEK293T
The test is described as follows: BRD4 (long) degradation assay, Western blotting. Format: cell-based. In outline:
(§1)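 Cell lines were grown at 37° C with 5% CO2 (HEK293T and C33A in DMEM, A549 in F-12K, 22RV1, LNCaP and Mino in RPMI-1640, K562 and MV-4-11 in IMDM, all with 10% FBS). Lysates were BCA-normalized, then SDS/PAGE Western blots were probed with target-specific antibodies and read by IR680/IR800 fluorescent secondaries on Li-Cor.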

A further test has as its target T2, BRD4 short (Homo sapiens, UniProt O60885).
T2 construct: endogenous in cells; host or cells: HEK293T
The test is described as follows: BRD4 (short) degradation assay, Western blotting. Format: cell-based. In outline:
as §1
Background: Immunoblotting shows a protein as a band on a membrane.

Setting [1] is: first value of cell (long/short).
Setting [2] is: second value of cell (long/short).
Setting [3] is: first value of cell, range with lower bound in nM and upper bound in μM.
The mark [4] stands for this setting: second value of cell, range with lower bound in nM and upper bound in μM.

Bounds are passed on as bounds.

As usually defined, the DC50 is the concentration at which degradation of the target reaches its halfway point.

For the compound `COc1ccc(C(=O)/C=C/C(=O)N2CCN(C(=O)C[C@@H]3N=C(c4ccc(Cl)cc4)c4c(sc(C)c4C)-n4c(C)nnc43)CC2)c(F)c1` [Compound 233, (S,E)-1-(4-(2-(4-(4-chlorophenyl)-2,3,9-trimethyl-6H-thieno[3,2-f][1,2,4]triazolo[4,3-a][1,4]diazepin-6-yl)acetyl)piperazin-1-yl)-4-(2-fluoro-4-methoxyphenyl)but-2-ene-1,4-dione], the DC50 on BRD4 long (setting [1]) and on BRD4 short (setting [2]) was < 100 nM throughout.

For `COc1ccc(C(=O)/C=C/C(=O)N[C@H]2C[C@H](NC(=O)CC3N=C(c4ccc(Cl)cc4)c4c(sc(C)c4C)-n4c(C)nnc43)C2)c(F)c1` (stereo partly drawn) [Compound 234, (E)-N-((1S,3r)-3-(2-((S)-4-(4-chlorophenyl)-2,3,9-trimethyl-6H-thieno[3,2-f][1,2,4]triazolo[4,3-a][1,4]diazepin-6-yl)acetamido)cyclobutyl)-4-(2-fluoro-4-methoxyphenyl)-4-oxobut-2-enamide], the results for the DC50 on BRD4 long (setting [1]) and at BRD4 short (setting [2]) were 50 nM and 150 nM, respectively.

With `COc1cc(F)ccc1C(=O)/C=C/C(=O)N1CCN(C(=O)C[C@@H]2N=C(c3ccc(Cl)cc3)c3c(sc(C)c3C)-n3c(C)nnc32)CC1` [Compound 235, (S,E)-1-(4-(2-(4-(4-chlorophenyl)-2,3,9-trimethyl-6H-thieno[3,2-f][1,2,4]triazolo[4,3-a][1,4]diazepin-6-yl)acetyl)piperazin-1-yl)-4-(4-fluoro-2-methoxyphenyl)but-2-ene-1,4-dione], the DC50 on BRD4 long (setting [1]) and on BRD4 short (setting [2]) was < 100 nM each time.

As to `COc1ccc(C(=O)/C=C/C(=O)N[C@H]2C[C@H](NC(=O)C[C@@H]3N=C(c4ccc(Cl)cc4)c4c(sc(C)c4C)-n4c(C)nnc43)C2)cc1F` [Compound 236, (E)-N-((1S,3r)-3-(2-((S)-4-(4-chlorophenyl)-2,3,9-trimethyl-6H-thieno[3,2-f][1,2,4]triazolo[4,3-a][1,4]diazepin-6-yl)acetamido)cyclobutyl)-4-(3-fluoro-4-methoxyphenyl)-4-oxobut-2-enamide], the DC50 stood at 90 nM on BRD4 long (setting [1]) and 190 nM on BRD4 short (setting [2]).

As for `COc1ccc(C(=O)/C=C/C(=O)N2CCN(C(=O)C[C@@H]3N=C(c4ccc(Cl)cc4)c4c(sc(C)c4C)-n4c(C)nnc43)CC2)cc1F` [Compound 237, (S,E)-1-(4-(2-(4-(4-chlorophenyl)-2,3,9-trimethyl-6H-thieno[3,2-f][1,2,4]triazolo[4,3-a][1,4]diazepin-6-yl)acetyl)piperazin-1-yl)-4-(3-fluoro-4-methoxyphenyl)but-2-ene-1,4-dione], the DC50 on BRD4 long (setting [1]) and on BRD4 short (setting [2]) was < 100 nM throughout.

Consider `Cc1sc2c(c1C)C(c1ccc(Cl)cc1)=N[C@@H](CC(=O)N1CCN(C(=O)/C=C/C(=O)c3ccc(C#N)cc3)CC1)c1nnc(C)n1-2` [Compound 238, (S,E)-4-(4-(4-(2-(4-(4-chlorophenyl)-2,3,9-trimethyl-6H-thieno[3,2-f][1,2,4]triazolo[4,3-a][1,4]diazepin-6-yl)acetyl)piperazin-1-yl)-4-oxobut-2-enoyl)benzonitrile], for which the DC50 is 100 to 1000 nM at BRD4 long (setting [3]) and < 100 nM on BRD4 short (setting [2]).

`Cc1sc2c(c1C)C(c1ccc(Cl)cc1)=N[C@@H](CC(=O)N1CCN(C(=O)/C=C/C(=O)c3cccc(C#N)c3)CC1)c1nnc(C)n1-2` [Compound 239, (S,E)-3-(4-(4-(2-(4-(4-chlorophenyl)-2,3,9-trimethyl-6H-thieno[3,2-f][1,2,4]triazolo[4,3-a][1,4]diazepin-6-yl)acetyl)piperazin-1-yl)-4-oxobut-2-enoyl)benzonitrile]: the DC50 at BRD4 long (setting [3]) and at BRD4 short (setting [4]) was 100 to 1000 nM throughout.

As to `COc1ccc(C(=O)/C=C/C(=O)N2CCN(C(=O)C[C@@H]3N=C(c4ccc(Cl)cc4)c4c(sc(C)c4C)-n4c(C)nnc43)CC2)c(Cl)c1` [Compound 240, (S,E)-1-(2-chloro-4-methoxyphenyl)-4-(4-(2-(4-(4-chlorophenyl)-2,3,9-trimethyl-6H-thieno[3,2-f][1,2,4]triazolo[4,3-a][1,4]diazepin-6-yl)acetyl)piperazin-1-yl)but-2-ene-1,4-dione], the results for the 50% degradation concentration (DC50) on BRD4 long (setting [1]) and on BRD4 short (setting [2]) were < 10 nM and 10 to 100 nM, respectively.

With `COc1ccc(C(=O)/C=C/C(=O)N[C@H]2C[C@H](NC(=O)C[C@@H]3N=C(c4ccc(Cl)cc4)c4c(sc(C)c4C)-n4c(C)nnc43)C2)c(Cl)c1` [Compound 241, (E)-4-(2-chloro-4-methoxyphenyl)-N-((1S,3r)-3-(2-((S)-4-(4-chlorophenyl)-2,3,9-trimethyl-6H-thieno[3,2-f][1,2,4]triazolo[4,3-a][1,4]diazepin-6-yl)acetamido)cyclobutyl)-4-oxobut-2-enamide], the results for the DC50 at BRD4 long (setting [1]) and on BRD4 short (setting [2]) were 90 nM and 180 nM, respectively.

As for `Cc1sc2c(c1C)C(c1ccc(Cl)cc1)=N[C@@H](CC(=O)N1CCN(C(=O)/C=C/C(=O)c3ccc(=O)n(C)c3)CC1)c1nnc(C)n1-2` [Compound 242, (S,E)-1-(4-(2-(4-(4-chlorophenyl)-2,3,9-trimethyl-6H-thieno[3,2-f][1,2,4]triazolo[4,3-a][1,4]diazepin-6-yl)acetyl)piperazin-1-yl)-4-(1-methyl-6-oxo-1,6-dihydropyridin-3-y1)but-2-ene-1,4-dione], the DC50 on BRD4 long (setting [1]) was determined as 80 nM; at BRD4 short (setting [2]), 40 nM.

For the compound `Cc1sc2c(c1C)C(c1ccc(Cl)cc1)=N[C@@H](CC(=O)N[C@H]1C[C@@H](NC(=O)/C=C/C(=O)c3ccc(=O)n(C)c3)C1)c1nnc(C)n1-2` [Compound 243, (E)-N-((1R,3s)-3-(2-((S)-4-(4-chlorophenyl)-2,3,9-trimethyl-6H-thieno[3,2-f][1,2,4]triazolo[4,3-a][1,4]diazepin-6-yl)acetamido)cyclobutyl)-4-(1-methyl-6-oxo-1,6-dihydropyridin-3-yl)-4-oxobut-2-enamide], the DC50 at BRD4 long (setting [3]) and on BRD4 short (setting [4]) was 100 to 1000 nM in each case.

As for `Cc1sc2c(c1C)C(c1ccc(Cl)cc1)=N[C@@H](CC(=O)N[C@H]1C[C@H](NC(=O)/C=C/C(=O)c3ccc(=O)n(C)c3)C1)c1nnc(C)n1-2` [Compound 244, (E)-N-((1S,3r)-3-(2-((S)-4-(4-chlorophenyl)-2,3,9-trimethyl-6H-thieno[3,2-f][1,2,4]triazolo[4,3-a][1,4]diazepin-6-yl)acetamido)cyclobutyl)-4-(1-methyl-6-oxo-1,6-dihydropyridin-3-yl)-4-oxobut-2-enamide], the DC50 at BRD4 long (setting [3]) is 100 to 1000 nM; at BRD4 short (setting [2]), 1000 nM.

Regarding `Cc1sc2c(c1C)C(c1ccc(Cl)cc1)=N[C@@H](CC(=O)N1CCN(C(=O)/C=C/C(=O)N3CCN(C)CC3)CC1)c1nnc(C)n1-2` [Compound 245, (S,E)-1-(4-(2-(4-(4-chlorophenyl)-2,3,9-trimethyl-6H-thieno[3,2-f][1,2,4]triazolo[4,3-a][1,4]diazepin-6-yl)acetyl)piperazin-1-yl)-4-(4-methylpiperazin-1-yl)but-2-ene-1,4-dione], the DC50 at BRD4 long (setting [1]) and on BRD4 short (setting [2]) was > 5000 nM throughout.

For `COc1ccc(NC(=O)/C=C/C(=O)N2CCN(C(=O)C[C@@H]3N=C(c4ccc(Cl)cc4)c4c(sc(C)c4C)-n4c(C)nnc43)CC2)cc1` [Compound 246, (S,E)-4-(4-(2-(4-(4-chlorophenyl)-2,3,9-trimethyl-6H-thieno[3,2-f][1,2,4]triazolo[4,3-a][1,4]diazepin-6-yl)acetyl)piperazin-1-yl)-N-(4-methoxyphenyl)-4-oxobut-2-enamide], the figures for the DC50 on BRD4 long (setting [1]) and on BRD4 short (setting [4]) were > 5000 nM and 100 to 1000 nM, respectively.

As to `Cc1sc2c(c1C)C(c1ccc(Cl)cc1)=N[C@@H](CC(=O)N1CCN(C(=O)/C=C/C(=O)Nc3cccn(C)c3=O)CC1)c1nnc(C)n1-2` [Compound 247, (S,E)-4-(4-(2-(4-(4-chlorophenyl)-2,3,9-trimethyl-6H-thieno[3,2-f][1,2,4]triazolo[4,3-a][1,4]diazepin-6-yl)acetyl)piperazin-1-yl)-N-(1-methyl-2-oxo-1,2-dihydropyridin-3-yl)-4-oxobut-2-enamide], the DC50 at BRD4 long (setting [3]) and at BRD4 short (setting [4]) was 100 to 1000 nM in each case.

Take `Cc1sc2c(c1C)C(c1ccc(Cl)cc1)=N[C@@H](CC(=O)N1CCN(C(=O)/C=C/C(=O)N3CCOCC3)CC1)c1nnc(C)n1-2` [Compound 248, (S,E)-1-(4-(2-(4-(4-chlorophenyl)-2,3,9-trimethyl-6H-thieno[3,2-f][1,2,4]triazolo[4,3-a][1,4]diazepin-6-yl)acetyl)piperazin-1-yl)-4-morpholinobut-2-ene-1,4-dione]: the DC50 at BRD4 long (setting [1]) and at BRD4 short (setting [2]) was > 5000 nM in each case.

As for `Cc1sc2c(c1C)C(c1ccc(Cl)cc1)=N[C@@H](CC(=O)N[C@H]1C[C@@H](NC(=O)/C=C/C(=O)N3CCOCC3)C1)c1nnc(C)n1-2` [Compound 249, (E)-N-((1R,3s)-3-(2-((S)-4-(4-chlorophenyl)-2,3,9-trimethyl-6H-thieno[3,2-f][1,2,4]triazolo[4,3-a][1,4]diazepin-6-yl)acetamido)cyclobutyl)-4-morpholino-4-oxobut-2-enamide], the DC50 at BRD4 long (setting [1]) and on BRD4 short (setting [2]) was > 5000 nM in each case.

As for `Cc1sc2c(c1C)C(c1ccc(Cl)cc1)=N[C@@H](CC(=O)N[C@H]1C[C@H](NC(=O)/C=C/C(=O)N3CCOCC3)C1)c1nnc(C)n1-2` [Compound 250, (E)-N-((1S,3r)-3-(2-((S)-4-(4-chlorophenyl)-2,3,9-trimethyl-6H-thieno[3,2-f][1,2,4]triazolo[4,3-a][1,4]diazepin-6-yl)acetamido)cyclobutyl)-4-morpholino-4-oxobut-2-enamide], the DC50 on BRD4 long (setting [1]) and on BRD4 short (setting [2]) was > 5000 nM each time.
